{"source": "patent US12286632B2", "about": "“Rationally-designed synthetic peptide shuttle agents for delivering polypeptide cargos from an extracellular space to the cytosol and/or nucleus of a target eukaryotic cell, uses thereof, methods and kits relating to same” (Feldan Bio Inc., priority 2016, dated 2025)", "key": {"HeLa cells [1]": {"test_system": "HeLa cells", "experiment": "FITC-labeled anti-tubulin antibody transduction assay (flow cytometry, cell viability, microscopy)", "conditions": "antibody 0.5 μM; shuttle 50 μM; 10 seconds, Protocol B", "method": "The delivery and microscopy protocols are described in Example 3.\nHeLa cells were cultured and tested in the protein transduction assay described in Example 3.1. […] The cells were subjected to flow cytometry analysis as described in Example 3.3."}, "CHO cells": {"test_system": "CHO cells", "experiment": "GFP-NLS transduction in different adherent and suspension cells (flow cytometry, Pos cells % and viability %)", "format": "cell-based, Chinese hamster", "conditions": "Protocol B, 35 μM shuttle, 5 μM GFP-NLS, 10 seconds", "method": "(§1) The media in wells was removed, cells were washed once with PBS previously warmed at 37° C., and the shuttle agent/cargo mixture was then added to cover all cells for the desired length of time. The shuttle agent/cargo mixture in wells was removed, the cells were washed once with PBS, and fresh complete medium was added. Before analysis, the cells were washed once with PBS and fresh complete medium was added.\n(§2) The ability of the shuttle agent His-CM18-PTD4 to deliver GFP-NLS to the nuclei of different adherent and suspension cells using Protocols B (adherent cells) or C (suspension cells) as described in Example 9.1 was examined. The cell lines tested included: HeLa, Balb3T3, HEK 293T, CHO, NIH3T3, Myoblasts, Jurkat, THP-1, CA46, and HT2 cells, which were cultured as described in Example 1. GFP-NLS (5 μM; see Example 5.1) was co-incubated with 35 μM of His-CM18-PTD4 and exposed to adherent cells for 10 seconds (Protocol B), or was co-incubated with 5 μM of His-CM18-PTD4 and exposed to suspension cells for 15 seconds (Protocol C). […] “Pos cells (%)” is the mean percentages of all cells that emanate a GFP signal."}, "Balb3T3 cells": {"test_system": "Balb3T3 cells", "experiment": "GFP-NLS transduction in different adherent and suspension cells (flow cytometry, Pos cells % and viability %)", "format": "cell-based", "conditions": "Protocol B, 35 μM shuttle, 5 μM GFP-NLS, 10 seconds", "method": "as §1, §2"}, "NIH3T3 cells": {"test_system": "NIH3T3 cells", "experiment": "GFP-NLS transduction in different adherent and suspension cells (flow cytometry, Pos cells % and viability %)", "format": "cell-based", "conditions": "Protocol B, 35 μM shuttle, 5 μM GFP-NLS, 10 seconds", "method": "as §1, §2"}, "HeLa cells [2]": {"test_system": "HeLa cells", "experiment": "GFP-NLS and mCherry-NLS co-transduction, visualization by microscopy", "format": "cell-based, Human", "conditions": "each cargo 5 μM; shuttle 35 μM; 10 seconds, Protocol B", "method": "as §1\n• GFP-NLS recombinant protein (5 μM; see Example 5.1) and mCherry™-NLS recombinant protein (5 μM) were co-incubated together with 35 μM of His-CM18-PTD4, and then exposed to HeLa cells for 10 seconds using Protocol B as described in Example 9.1. After washing steps, the cells were immediately visualized by bright field and fluorescence microscopy at 20× magnifications as described in Example 3.2. Sample results are shown in FIG. 28, in which corresponding images showing bright field (FIG. 28A), DAPI fluorescence (FIG. 28B), GFP-NLS fluorescence (FIG. 28C), and mCherry™-NLS fluorescence (FIG. 28D) are shown. White triangle windows indicate examples of areas of co-labelling between GFP-NLS and mCherry™ fluorescence signals in cell nuclei. […] 9.7 GFP-NLS Transduction by his-CM18-PTD4 in THP-1 Suspension Cells: Flow Cytometry"}, "PPIB gene": {"test_system": "PPIB gene", "experiment": "T7E1 DNA cleavage assay after CRISPR/Cas9-NLS delivery, HeLa cells", "format": "cell-based, Human", "conditions": "shuttle 10 μM; Cas9-NLS 25 nM; HeLa cells 16 h, medium without serum", "excerpt": "The T7 endonuclease I (T7E1) can be used to detect on-target CRISPR/Cas genome editing events in cultured cells. As an overview, genomic DNA from target cells is amplified by PCR. The PCR products are then denatured and reannealed to allow heteroduplex formation between wild-type DNA and CRISPR/Cas-mutated DNA. T7E1, which recognizes and cleaves mismatched DNA, is used to digest the heteroduplexes. The resulting cleaved and full-length PCR products are visualized by gel electrophoresis.\nThe T7E1 assay was performed with the Edit-R™ Synthetic crRNA Positive Controls (Dharmacon #U-007000-05) and the T7 Endonuclease I (NEB, Cat #M0302S). After the delivery of the CRISPR/Cas complex, cells were lysed in 100 μL of Phusion™ High-Fidelity DNA polymerase (NEB #M0530S) laboratory with additives. The cells were incubated for 15-30 minutes at 56° C., followed by deactivation for 5 minutes at 96° C. The plate was briefly centrifuged to collect the liquid at bottom of the wells. 50-μL PCR samples were set up for each sample to be analyzed. The PCR samples were heated to 95° C. for 10 minutes and then slowly (>15 minutes) cooled to room temperature. PCR product (-5 μL) was then separated on an agarose gel (2%) to confirm amplification. 15 μL of each reaction was incubated with T7E1 nuclease for 25 minutes at 37° C. […]"}, "HeLa cells [3]": {"test_system": "HeLa cells", "experiment": "Plasmid DNA (pEGFP-C1) transfection by peptides (% cells with GFP signal, cell viability)", "conditions": "DNA transfection in HeLa cells using peptides; pEGFP-C1 plasmid"}, "THP-1 cells": {"test_system": "THP-1 cells", "experiment": "GFP-NLS protein transduction assay (flow cytometry: Pos cells %, viability %, relative fluorescence intensity; microscopy)", "experimental": "One day before the transduction assay was performed, cells in exponential growth phase were harvested and plated in a 96-well plate (20,000 cells per well). The cells were incubated overnight in appropriate growth media containing FBS (see Example 1). The next day, in separate sterile 1.5 mL tubes, cargo protein at the indicated concentration was pre-mixed (pre-incubated) for 1 or 10 min (depending on the protocol) at 37° C. with the peptide(s) to be tested shuttle agents (0.5 to 5 μM) in 50 μL of fresh medium without serum (unless otherwise specified). The media in wells was removed and the cells were washed three times with freshly prepared phosphate buffered saline (PBS) previously warmed at 37° C. The cells were incubated with the cargo protein/shuttle agent mixture at 37° C. for the indicated time (e.g., 1, 5 or 60 min). After the incubation, the cells were quickly washed three times with freshly prepared PBS and/or heparin (0.5 mg/mL) previously warmed at 37° C. The washes with heparin were required for human THP-1 blood cells to avoid undesired cell membrane-bound protein background in subsequent analyses (microscopy and flow cytometry). The cells were finally incubated in 50 μL of fresh medium with serum at 37° C. before analysis.\nOne day before the transduction assay was performed, suspension cells in exponential growth phase were harvested and plated in a 96-well plate (20,000 cells per well). The cells were incubated overnight in appropriate growth media containing serum (see Example 1). The next day, in separate sterile 1.5-mL tubes, peptides were diluted in sterile distilled water at room temperature (if the cargo is or comprised a nucleic acid, nuclease-free water was used). Cargo protein(s) were then added to the peptides and, if necessary, sterile PBS or cell culture medium (serum-free) was added to obtain the desired concentrations of shuttle agent and cargo in a sufficient final volume to resuspend the cells (e.g., 10 to 100 μL per well in a 96-well plate). The shuttle agent/peptide was then immediately used for experiments. At least three controls were included for each experiment, including: (1) peptide alone (e.g., at highest concentration tested); (2) cargo alone; and (3) without any cargo or shuttle agent. The cells were centrifuged for 2 minutes at 400g, the medium was then removed and the cells were resuspended in PBS previously warmed at 37° C. The cells were centrifuged again 2 minutes at 400g, the PBS removed, and the cells were resuspended with the cargo protein/peptide mixture at 37° C. for the desired length of time. After that, 200 μL of complete medium was added directly on the cells. Cells were centrifuged for 2 minutes at 400g and the medium was removed. The pellet was resuspended and washed in 200 μL of PBS previously warmed at 37° C. After another centrifugation, the PBS was removed and the cells were resuspended in 50 μL of trypsin-EDTA solution for 2 min. 200 of complete medium was directly added and cells were centrifuged for 2 minutes at 400g. The medium was removed and the cells were resuspended in 200 μL of complete medium.\nThe cells incubated in 50 μL of fresh medium were directly observed by microscopy (Bright-field and fluorescence) at different power fields (4× to 40×). The cells were observed using a CoolSNAP-PRO™ camera (Series A02D874021) and images were acquired using the Image-Proplus™ software.\nThe fluorescence of GFP was quantified using flow cytometry (Accuri C6, Becton, Dickinson and Company (BD))."}, "[4]": {"conditions": "THP-1, Protocol C, 5 μM shuttle, 5 μM GFP-NLS, 15 seconds"}}, "data": [{"smiles": "CC[C@H](C)[C@H](NC(=O)[C@H](CCCCN)NC(=O)[C@H](CCCCN)NC(=O)[C@H](Cc1ccccc1)NC(=O)[C@H](CC(C)C)NC(=O)[C@H](CCCCN)NC(=O)[C@H](Cc1c[nH]c2ccccc12)NC(=O)[C@H](CCCCN)NC(=O)[C@H](Cc1c[nH]cn1)NC(=O)[C@H](Cc1c[nH]cn1)NC(=O)[C@H](Cc1c[nH]cn1)NC(=O)[C@H](Cc1c[nH]cn1)NC(=O)[C@H](Cc1c[nH]cn1)NC(=O)[C@@H](N)Cc1c[nH]cn1)C(=O)NCC(=O)N[C@@H](C)C(=O)N[C@H](C(=O)N[C@@H](CC(C)C)C(=O)N[C@@H](CCCCN)C(=O)N[C@H](C(=O)N[C@@H](CC(C)C)C(=O)N[C@H](C(=O)N[C@H](C(=O)NCC(=O)N[C@@H](Cc1ccc(O)cc1)C(=O)N[C@@H](C)C(=O)N[C@@H](CCCNC(=N)N)C(=O)N[C@@H](C)C(=O)N[C@@H](C)C(=O)N[C@@H](C)C(=O)N[C@@H](CCCNC(=N)N)C(=O)N[C@@H](CCC(N)=O)C(=O)N[C@@H](C)C(=O)N[C@@H](CCCNC(=N)N)C(=O)N[C@@H](C)C(=O)O)[C@@H](C)O)[C@@H](C)O)C(C)C)C(C)C", "note": "[His-CM18-PTD4]", "values": [{"measurement": "antibody delivery (microscopy, in words)", "setting": "HeLa cells [1]", "value": "successfully transduced and delivered to the nucleus and/or the cytosol"}, {"measurement": "Cell viability (%) (±St. Dev.; n = 3)", "setting": "CHO cells", "value": "92.8 ± 0.1", "unit": "%"}, {"measurement": "Mean % cells with GFP signal (±St. Dev.; n = 3)", "setting": "CHO cells", "value": "53.7 ± 4.6", "unit": "%"}, {"measurement": "Cell viability (%) (±St. Dev.; n = 3)", "setting": "Balb3T3 cells", "value": "98.4 ± 0.6", "unit": "%"}, {"measurement": "Mean % cells with GFP signal (±St. Dev.; n = 3)", "setting": "Balb3T3 cells", "value": "40.2 ± 3.1", "unit": "%"}, {"measurement": "Cell viability (%) (±St. Dev.; n = 3)", "setting": "NIH3T3 cells", "value": "3.3 ± 5.4", "unit": "%"}, {"measurement": "Mean % cells with GFP signal (±St. Dev.; n = 3)", "setting": "NIH3T3 cells", "value": "35.4 ± 3.9", "unit": "%"}, {"measurement": "co-delivery of GFP-NLS and mCherry-NLS (microscopy)", "setting": "HeLa cells [2]", "value": "successfully delivered together to the nucleus"}, {"measurement": "delivery of functional CRISPR/Cas9 complex, cleavage of genomic PPIB (in words)", "setting": "PPIB gene", "value": "successfully deliver a functional CRISPR/Cas9 complex to the nucleus of HeLa cells"}, {"measurement": "Mean % cells with GFP signal (±St. Dev.; n = 3)", "setting": "HeLa cells [3]", "value": "0.04 ± 0.01", "unit": "%"}, {"measurement": "GFP-NLS intracellular delivery after repeated daily treatments (in words)", "setting": "THP-1 cells; 0.5 or 0.8 μM shuttle, 150 min each day, in the presence of serum", "value": "result in intracellular delivery of GFP-NLS"}, {"measurement": "Mean % cells with GFP signal (±St. Dev.; n = 3)", "setting": "THP-1 cells; Protocol C, THP-1, 1 μM shuttle, 5 μM GFP-NLS, incubation 15 sec", "value": "23.7 ± 0.2", "unit": "%"}, {"measurement": "Mean % cells with GFP signal (±St. Dev.; n = 3)", "setting": "THP-1 cells; Protocol C, THP-1, 1 μM shuttle, 5 μM GFP-NLS, incubation 30 sec", "value": "53 ± 0.3", "unit": "%"}, {"measurement": "Mean % cells with GFP signal (±St. Dev.; n = 3)", "setting": "THP-1 cells; Protocol C, THP-1, 1 μM shuttle, 5 μM GFP-NLS, incubation 60 sec", "value": "69.6 ± 4.2", "unit": "%"}, {"measurement": "Mean % cells with GFP signal (±St. Dev.; n = 3)", "setting": "THP-1 cells; Protocol C, THP-1, 1 μM shuttle, 5 μM GFP-NLS, incubation 120 sec", "value": "89 ± 0.8", "unit": "%"}, {"measurement": "Cell viability (%) (±St. Dev.; n = 3)", "setting": "THP-1 cells; [4]", "value": "64.1 ± 4.5", "unit": "%"}, {"measurement": "Mean % cells with GFP signal (±St. Dev.; n = 3)", "setting": "THP-1 cells; [4]", "value": "64.1 ± 1.6", "unit": "%"}, {"measurement": "Mean % cells with GFP signal (±St. Dev.; n = 3)", "setting": "THP-1 cells; THP-1, serum, daily 150 min, 0.5 μM shuttle, 5 μM GFP-NLS, 1 day exposure", "value": "12.1 ± 1.5", "unit": "%"}, {"measurement": "Mean % cells with GFP signal (±St. Dev.; n = 3)", "setting": "THP-1 cells; THP-1, serum, daily 150 min, 0.5 μM shuttle, 5 μM GFP-NLS, 3 days exposure", "value": "73.4 ± 1.1", "unit": "%"}, {"measurement": "Mean % cells with GFP signal (±St. Dev.; n = 3)", "setting": "THP-1 cells; THP-1, serum, daily 150 min, 0.8 μM shuttle, 1 μM GFP-NLS, 1 day exposure", "value": "1.6 ± 0.2", "unit": "%"}, {"measurement": "Mean % cells with GFP signal (±St. Dev.; n = 3)", "setting": "THP-1 cells; THP-1, serum, daily 150 min, 0.8 μM shuttle, 1 μM GFP-NLS, 3 days exposure", "value": "6.5 ± 0.9", "unit": "%"}, {"measurement": "Mean % cells with GFP signal (±St. Dev.; n = 3)", "setting": "THP-1 cells; THP-1, serum, daily 150 min, 0.8 μM shuttle, 2.5 μM GFP-NLS, 1 day exposure", "value": "12.2 ± 0.9", "unit": "%"}, {"measurement": "Mean % cells with GFP signal (±St. Dev.; n = 3)", "setting": "THP-1 cells; THP-1, serum, daily 150 min, 0.8 μM shuttle, 2.5 μM GFP-NLS, 3 days exposure", "value": "62.4 ± 3.5", "unit": "%"}, {"measurement": "Mean % cells with GFP signal (±St. Dev.; n = 3)", "setting": "THP-1 cells; Table 9.3, Protocol A, THP-1, shuttle 1 μM, GFP-NLS 5 μM, 1 hour", "value": "14.2 ± 2.2", "unit": "%"}, {"measurement": "Mean % cells with GFP signal (±St. Dev.; n = 3)", "setting": "THP-1 cells; Table 9.3, Protocol C, THP-1, shuttle 0.5 μM, GFP-NLS 5 μM, 15 seconds", "value": "34.9 ± 3.8", "unit": "%"}, {"measurement": "Mean % cells with GFP signal (±St. Dev.; n = 3)", "setting": "THP-1 cells; Table 9.3, Protocol C, THP-1, shuttle 5 μM, GFP-NLS 5 μM, 15 seconds", "value": "64.1 ± 1.6", "unit": "%"}, {"measurement": "GFP-NLS intracellular delivery (microscopy / FACS, in words)", "setting": "THP-1 cells; shuttle 5 μM, GFP-NLS 5 μM, 15 seconds, Protocol C", "value": "successfully delivered intracellularly"}]}]}
